Measurements: the supplement of paper PMC10307832

Experiments:
Assay in all cases: relative viability (nuclei count vs DMSO), 5 days (fraction); higher = more cells survive
Dovitinib = compound: CN1CCN(c2ccc3nc(-c4c(N)c5c(F)cccc5[nH]c4=O)[nH]c3c2)CC1 [Dovitinib]
Summary of the method: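 Cells of lung cancer lines were placed in 1536-well plates and kept overnight at 37 °C. Pinning then delivered five library-drug doses (not always all listed), spaced by √10, onto plates anchored with vehicle, and the cells were left 5 days without changing medium. One step fixed, permeabilised and stained them with Hoechst, and MetaXpress counted nuclei in 4× images. Viability, as a median over plates, is treated-well nuclei divided by vehicle-well nuclei, with acceptance only at control CV below 25% and at least one doubling.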

Dovitinib + Luminespib = compound: CN1CCN(c2ccc3nc(-c4c(N)c5c(F)cccc5[nH]c4=O)[nH]c3c2)CC1 [Dovitinib] + CCNC(=O)c1noc(-c2cc(C(C)C)c(O)cc2O)c1-c1ccc(CN2CCOCC2)cc1 [Luminespib] (partner 0.01 µM)
Summary of the method: (§1)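 Lung cancer cell lines were seeded in 1536-well plates and dosed by pin tool the next day, with either a single drug or a fixed anchor-drug dose combined with five library-drug doses (not always all listed) spaced in √10 steps. Five days later, one step fixed the cells and stained their nuclei (final 0.05% Triton X-100, 1% formaldehyde, 1 ug/ml Hoechst), and nuclei were counted on 4× images. Relative viability is the nuclei count in treated wells divided by the count in vehicle wells, and each value is the median of duplicate plates.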

Dovitinib + Foretinib = compound: CN1CCN(c2ccc3nc(-c4c(N)c5c(F)cccc5[nH]c4=O)[nH]c3c2)CC1 [Dovitinib] + COc1cc2c(Oc3ccc(NC(=O)C4(C(=O)Nc5ccc(F)cc5)CC4)cc3F)ccnc2cc1OCCCN1CCOCC1 [Foretinib] (partner 0.25 µM)
Summary of the method: as §1

Dovitinib + OSI-027 = compound: CN1CCN(c2ccc3nc(-c4c(N)c5c(F)cccc5[nH]c4=O)[nH]c3c2)CC1 [Dovitinib] + COc1cccc2cc(-c3nc([C@H]4CC[C@H](C(=O)O)CC4)n4ncnc(N)c34)[nH]c12 [OSI-027] (partner 0.5 µM)
Summary of the method: as §1

Dovitinib + Tozasertib = compound: CN1CCN(c2ccc3nc(-c4c(N)c5c(F)cccc5[nH]c4=O)[nH]c3c2)CC1 [Dovitinib] + Cc1cc(Nc2cc(N3CCN(C)CC3)nc(Sc3ccc(NC(=O)C4CC4)cc3)n2)n[nH]1 [Tozasertib] (partner 0.1 µM)
Summary of the method: as §1

Dovitinib + Dasatinib = compound: CN1CCN(c2ccc3nc(-c4c(N)c5c(F)cccc5[nH]c4=O)[nH]c3c2)CC1 [Dovitinib] + Cc1nc(Nc2ncc(C(=O)Nc3c(C)cccc3Cl)s2)cc(N2CCN(CCO)CC2)n1 [Dasatinib] (partner 0.075 µM)
Summary of the method: as §1

Dovitinib + Phenformin = compound: CN1CCN(c2ccc3nc(-c4c(N)c5c(F)cccc5[nH]c4=O)[nH]c3c2)CC1 [Dovitinib] + N=C(N)NC(=N)NCCc1ccccc1 [Phenformin] (partner 250 µM)
Summary of the method: as §1

Dovitinib + Trametinib = compound: CN1CCN(c2ccc3nc(-c4c(N)c5c(F)cccc5[nH]c4=O)[nH]c3c2)CC1 [Dovitinib] + CC(=O)Nc1cccc(-n2c(=O)n(C3CC3)c(=O)c3c(Nc4ccc(I)cc4F)n(C)c(=O)c(C)c32)c1 [Trametinib] (partner 0.02 µM)
Summary of the method: as §1

Dovitinib + Palbociclib = compound: CN1CCN(c2ccc3nc(-c4c(N)c5c(F)cccc5[nH]c4=O)[nH]c3c2)CC1 [Dovitinib] + CC(=O)c1c(C)c2cnc(Nc3ccc(N4CCNCC4)cn3)nc2n(C2CCCC2)c1=O [Palbociclib] (partner 0.5 µM)
Summary of the method: as §1

Dovitinib + AZD7762 = compound: CN1CCN(c2ccc3nc(-c4c(N)c5c(F)cccc5[nH]c4=O)[nH]c3c2)CC1 [Dovitinib] + NC(=O)Nc1cc(-c2cccc(F)c2)sc1C(=O)N[C@H]1CCCNC1 [AZD7762] (partner 0.2 µM)
Summary of the method: as §1

Dovitinib + Pemetrexed = compound: CN1CCN(c2ccc3nc(-c4c(N)c5c(F)cccc5[nH]c4=O)[nH]c3c2)CC1 [Dovitinib] + Nc1nc2[nH]cc(CCc3ccc(C(=O)N[C@@H](CCC(=O)O)C(=O)O)cc3)c2c(=O)[nH]1 [Pemetrexed] (partner 0.2 µM)
Summary of the method: as §1

Dovitinib + Decitabine = compound: CN1CCN(c2ccc3nc(-c4c(N)c5c(F)cccc5[nH]c4=O)[nH]c3c2)CC1 [Dovitinib] + Nc1ncn([C@H]2C[C@H](O)[C@@H](CO)O2)c(=O)n1 [Decitabine] (partner 2 µM)
Summary of the method: as §1

Dovitinib + Vorinostat = compound: CN1CCN(c2ccc3nc(-c4c(N)c5c(F)cccc5[nH]c4=O)[nH]c3c2)CC1 [Dovitinib] + O=C(CCCCCCC(=O)Nc1ccccc1)NO [Vorinostat] (partner 1 µM)
Summary of the method: as §1

Dovitinib + Olaparib = compound: CN1CCN(c2ccc3nc(-c4c(N)c5c(F)cccc5[nH]c4=O)[nH]c3c2)CC1 [Dovitinib] + O=C(c1cc(Cc2n[nH]c(=O)c3ccccc23)ccc1F)N1CCN(C(=O)C2CC2)CC1 [Olaparib] (partner 8 µM)
Summary of the method: as §1

NCI-H1623
relative viability (Dovitinib; 0.02 µM): 1.07
relative viability (Dovitinib; 0.06325 µM): 0.98
relative viability (Dovitinib; 0.2 µM): 0.916
relative viability (Dovitinib; 0.6325 µM): 1
relative viability (Dovitinib; 2 µM): 0.892
relative viability (Dovitinib + Luminespib; first compound 0.02 µM): 0.493
relative viability (Dovitinib + Luminespib; first compound 0.06325 µM): 0.605
relative viability (Dovitinib + Luminespib; first compound 0.2 µM): 0.491
relative viability (Dovitinib + Luminespib; first compound 0.6325 µM): 0.551
relative viability (Dovitinib + Luminespib; first compound 2 µM): 0.516
relative viability (Dovitinib + Foretinib; first compound 0.02 µM): 0.81
relative viability (Dovitinib + Foretinib; first compound 0.06325 µM): 0.821
relative viability (Dovitinib + Foretinib; first compound 0.2 µM): 0.958
relative viability (Dovitinib + Foretinib; first compound 0.6325 µM): 0.901
relative viability (Dovitinib + Foretinib; first compound 2 µM): 0.893
relative viability (Dovitinib + OSI-027; first compound 0.02 µM): 0.476
relative viability (Dovitinib + OSI-027; first compound 0.06325 µM): 0.436
relative viability (Dovitinib + OSI-027; first compound 0.2 µM): 0.456
relative viability (Dovitinib + OSI-027; first compound 0.6325 µM): 0.384
relative viability (Dovitinib + OSI-027; first compound 2 µM): 0.384
relative viability (Dovitinib + Tozasertib; first compound 0.02 µM): 0.458
relative viability (Dovitinib + Tozasertib; first compound 0.06325 µM): 0.427
relative viability (Dovitinib + Tozasertib; first compound 0.2 µM): 0.495
relative viability (Dovitinib + Tozasertib; first compound 0.6325 µM): 0.445
relative viability (Dovitinib + Tozasertib; first compound 2 µM): 0.423
relative viability (Dovitinib + Dasatinib; first compound 0.02 µM): 0.47
relative viability (Dovitinib + Dasatinib; first compound 0.06325 µM): 0.527
relative viability (Dovitinib + Dasatinib; first compound 0.2 µM): 0.615
relative viability (Dovitinib + Dasatinib; first compound 0.6325 µM): 0.536
relative viability (Dovitinib + Dasatinib; first compound 2 µM): 0.537
relative viability (Dovitinib + Phenformin; first compound 0.02 µM): 0.569
relative viability (Dovitinib + Phenformin; first compound 0.06325 µM): 0.574
relative viability (Dovitinib + Phenformin; first compound 0.2 µM): 0.602
relative viability (Dovitinib + Phenformin; first compound 0.6325 µM): 0.617
relative viability (Dovitinib + Phenformin; first compound 2 µM): 0.636

SW 900
relative viability (Dovitinib; 0.02 µM): 1.11
relative viability (Dovitinib; 0.06325 µM): 0.853
relative viability (Dovitinib; 0.2 µM): 1.11
relative viability (Dovitinib; 0.6325 µM): 1.04
relative viability (Dovitinib; 2 µM): 0.952
relative viability (Dovitinib + Trametinib; first compound 0.02 µM): 0.811
relative viability (Dovitinib + Trametinib; first compound 0.06325 µM): 0.763
relative viability (Dovitinib + Trametinib; first compound 0.2 µM): 1.06
relative viability (Dovitinib + Trametinib; first compound 0.6325 µM): 0.771
relative viability (Dovitinib + Trametinib; first compound 2 µM): 1.08
relative viability (Dovitinib + Palbociclib; first compound 0.02 µM): 0.588
relative viability (Dovitinib + Palbociclib; first compound 0.06325 µM): 0.632
relative viability (Dovitinib + Palbociclib; first compound 0.2 µM): 0.615
relative viability (Dovitinib + Palbociclib; first compound 0.6325 µM): 0.611
relative viability (Dovitinib + Palbociclib; first compound 2 µM): 0.571
relative viability (Dovitinib + Luminespib; first compound 0.02 µM): 0.181
relative viability (Dovitinib + Luminespib; first compound 0.06325 µM): 0.173
relative viability (Dovitinib + Luminespib; first compound 0.2 µM): 0.176
relative viability (Dovitinib + Luminespib; first compound 0.6325 µM): 0.164
relative viability (Dovitinib + Luminespib; first compound 2 µM): 0.149
relative viability (Dovitinib + Foretinib; first compound 0.02 µM): 0.85
relative viability (Dovitinib + Foretinib; first compound 0.06325 µM): 0.841
relative viability (Dovitinib + Foretinib; first compound 0.2 µM): 0.919
relative viability (Dovitinib + Foretinib; first compound 0.6325 µM): 1
relative viability (Dovitinib + Foretinib; first compound 2 µM): 0.792
relative viability (Dovitinib + OSI-027; first compound 0.02 µM): 0.465
relative viability (Dovitinib + OSI-027; first compound 0.06325 µM): 0.556
relative viability (Dovitinib + OSI-027; first compound 0.2 µM): 0.616
relative viability (Dovitinib + OSI-027; first compound 0.6325 µM): 0.54
relative viability (Dovitinib + OSI-027; first compound 2 µM): 0.62
relative viability (Dovitinib + Tozasertib; first compound 0.02 µM): 0.459
relative viability (Dovitinib + Tozasertib; first compound 0.06325 µM): 0.537
relative viability (Dovitinib + Tozasertib; first compound 0.2 µM): 0.533
relative viability (Dovitinib + Tozasertib; first compound 0.6325 µM): 0.582
relative viability (Dovitinib + Tozasertib; first compound 2 µM): 0.689
relative viability (Dovitinib + Dasatinib; first compound 0.02 µM): 0.741
relative viability (Dovitinib + Dasatinib; first compound 0.06325 µM): 0.586
relative viability (Dovitinib + Dasatinib; first compound 0.2 µM): 0.548
relative viability (Dovitinib + Dasatinib; first compound 0.6325 µM): 0.546
relative viability (Dovitinib + Dasatinib; first compound 2 µM): 0.61
relative viability (Dovitinib + Phenformin; first compound 0.02 µM): 0.83
relative viability (Dovitinib + Phenformin; first compound 0.06325 µM): 0.834
relative viability (Dovitinib + Phenformin; first compound 0.2 µM): 0.478
relative viability (Dovitinib + Phenformin; first compound 0.6325 µM): 0.618
relative viability (Dovitinib + Phenformin; first compound 2 µM): 0.554
relative viability (Dovitinib + AZD7762; first compound 0.02 µM): 0.591
relative viability (Dovitinib + AZD7762; first compound 0.06325 µM): 0.62
relative viability (Dovitinib + AZD7762; first compound 0.2 µM): 0.505
relative viability (Dovitinib + AZD7762; first compound 0.6325 µM): 0.681
relative viability (Dovitinib + AZD7762; first compound 2 µM): 0.615
relative viability (Dovitinib + Pemetrexed; first compound 0.02 µM): 0.473
relative viability (Dovitinib + Pemetrexed; first compound 0.06325 µM): 0.477
relative viability (Dovitinib + Pemetrexed; first compound 0.2 µM): 0.476
relative viability (Dovitinib + Pemetrexed; first compound 0.6325 µM): 0.534
relative viability (Dovitinib + Pemetrexed; first compound 2 µM): 0.491
relative viability (Dovitinib + Decitabine; first compound 0.02 µM): 0.395
relative viability (Dovitinib + Decitabine; first compound 0.06325 µM): 0.456
relative viability (Dovitinib + Decitabine; first compound 0.2 µM): 0.444
relative viability (Dovitinib + Decitabine; first compound 0.6325 µM): 0.377
relative viability (Dovitinib + Decitabine; first compound 2 µM): 0.444
relative viability (Dovitinib + Vorinostat; first compound 0.02 µM): 0.699
relative viability (Dovitinib + Vorinostat; first compound 0.06325 µM): 0.402
relative viability (Dovitinib + Vorinostat; first compound 0.2 µM): 0.518
relative viability (Dovitinib + Vorinostat; first compound 0.6325 µM): 0.616
relative viability (Dovitinib + Vorinostat; first compound 2 µM): 0.493
relative viability (Dovitinib + Olaparib; first compound 0.02 µM): 0.796
relative viability (Dovitinib + Olaparib; first compound 0.06325 µM): 0.809
relative viability (Dovitinib + Olaparib; first compound 0.2 µM): 0.847
relative viability (Dovitinib + Olaparib; first compound 0.6325 µM): 0.808
relative viability (Dovitinib + Olaparib; first compound 2 µM): 0.851
